Test results taken from patent publication US7705023B2, “Indoles useful in the treatment of inflammation” (Biolipox AB, priority 2005, dated 2010).

Biological target: T1, human mPGES-1 (Homo sapiens, UniProt O14684)
T1 construct: made in house; host or cells: E. coli
T1 sequence (O14684 1-152): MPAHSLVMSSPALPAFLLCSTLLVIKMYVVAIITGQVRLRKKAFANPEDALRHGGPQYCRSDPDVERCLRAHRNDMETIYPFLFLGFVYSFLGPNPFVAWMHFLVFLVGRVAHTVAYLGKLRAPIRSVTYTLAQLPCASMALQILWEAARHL
Assay: mPGES-1 biological test (conversion of PGH2 to PGE2, HPLC analysis)
Type: biochemical
Conditions: human mPGES-1 expressed in E. coli, membrane fraction; 25 min preincubation with inhibitor, 60 s with PGH2, room temperature; read-out: concentration at which 50% inhibition of mPGES-1 was observed
Method: In the assay human mPGES-1 catalyses the reaction where the substrate PGH2 is converted to PGE2. mPGES-1 is expressed in E. coli and the membrane fraction is dissolved in 20 mM NaPi-buffer pH 8.0 and stored at −80° C. In the assay human mPGES-1 is dissolved in 0.1 M KPi-buffer pH 7.35 with 2.5 mM glutathione. The stop solution consists of H2O/MeCN (7/3), containing FeCl2 (25 mM) and HCl (0.15 M). The assay is performed at room temperature in 96-well plates. Analysis of the amount of PGE2 is performed with reversed phase HPLC (Waters 2795 equipped with a 3.9×150 mm C18 column). The mobile phase consists of H2O/MeCN (7/3), containing TFA (0.056%), and absorbance is measured at 195-nm with a Waters 2487 UV-detector.
The following is added chronologically to each well: • 1. 100 μL human mPGES-1 in KPi-buffer with glutathione. Total protein concentration: 0.02 mg/mL. • 2. 1 μL inhibitor in DMSO. Incubation of the plate at room temperature for 25 minutes. • 3. 4 μL of a 0.25 mM PGH2, solution. Incubation of the plate at room temperature for 60 seconds. • 4. 100 μL stop solution. • 180 μL per sample is analyzed with HPLC.

Row | Compound | IC50
1 | CC(C)Oc1ccc(-c2ccc3c(c2)c(Cl)c(C(=O)O)n3-c2ccc(OC(C)C)nc2)cc1 [Example 33, 3-Chloro-5-(4-isopropoxyphenyl)-1-(6-isopropoxypyrid-3-yl)indole-2-carboxylic acid] | 390 nM
2 | O=C(O)c1c(Cl)c2cc(-c3ccc(C(F)(F)F)cn3)ccc2n1-c1ccc(OC2CCCC2)nc1 [Example 36, 3-Chloro-1-(6-cyclopentoxypyrid-3-yl)-5-(5-trifluoromethylpyrid-2-yl)-1H-indole-2-carboxylic acid] | 1100 nM
3 | CC(C)(C)c1ccc(-c2ccc3c(c2)cc(C(=O)O)n3-c2ccc(C3CCCCC3)cc2)cc1 [Example 64, 5-(4-tert-Butylphenyl)-1-(4-cyclohexylphenyl)-1H-indole-2-carboxylic acid] | 170 nM

Continued by falling IC50, values first:

Row | IC50 | Compound
4 | 610 nM | CC(C)Oc1ccc(-n2c(C(=O)O)cc3cc(-c4ccc(OC(C)C)nc4)ccc32)cc1 [Example 9]
5 | 62 nM | CC(C)Oc1ccc(-n2c(C(=O)O)cc3cc(-c4ccc(C(C)(C)C)cc4)ccc32)cc1 [Example 1, 5-(4-tert-Butylphenyl)-1-(4-isopropoxphenyl)-indole-2-carboxylic acid]
